Measurements from article PMC12298351, “Novel 3,19-(N-Phenyl-3-(4-fluorophenyl)-pyrazole) Acetal of Andrographolide Promotes Cell Cycle Arrest and Apoptosis in MDA-MB-231 Breast Cancer Cells” (Pharmaceuticals, 2025).
Several values for one entry are separate records, joined by “and”; a condition that tells them apart may be missing. Identical values can stand only once.

Columns and labels:
IGROV1 = details: IGROV1, Ovarian; for CC50: read-out: 50% lethal concentration (LC50)
[1] = test system: MDA-MB-231 breast cancer cells; experiment: MTT cell proliferation assay; assay type: cell-based; details: MDA-MB-231, 0-200 µM, 72 h
Protocol: (§1) These MDA-MB-231 breast cancer cells were treated with 1f at different concentrations, i.e., 0, 1.56, 3.125, 6.25, 12.5, 25, 50, 100, and 200 µM, for 72 h.
(§2) MDA-MB-231 breast cancer cells and MCF-10A normal breast epithelial cells (from ATCC, Manassas, VA, USA) were seeded into 96-well plates at a density of 4 × 10^3 cells per well. After overnight incubation at 37 °C, the cells were treated with varying concentrations of compound 1f (0, 1.56, 3.125, 6.25, 12.5, 25, 50, 100, and 200 µM) and incubated for an additional 72 h. Untreated cells served as the negative control. Subsequently, 10 µL of the MTT solution (5 mg/mL) was added to each well, and the plates were incubated for 3 h to assess cell viability. The medium was then discarded, and the absorbance was measured at 570 nm using a microplate reader (Promega GloMax, Madison, WI, USA).

[2] = test system: MDA-MB-231 breast cancer cell line; experiment: Annexin V-FITC/PI apoptotic assay (FACS); assay type: cell-based; details: MDA-MB-231, 3.33 µM
Protocol: Apoptosis is considered a preventive mechanism against cancer dissemination, as it plays a crucial role in eliminating excessively proliferating and mutated cancer cells from the body. Following the administration of cytotoxic drugs as treatment for various types of cancer, apoptosis is a significant contributor to cellular death. […] We proceeded to investigate whether compound 1f triggers apoptosis or not. The MDA-MB-231 breast cancer cell line was treated with 1f for 24, 48, and 72 h. A quantitative evaluation of apoptotic activity was performed using FACS.
To evaluate the pro-apoptotic effect of compound 1f, Annexin V-FITC/PI dual staining was conducted. Cells were seeded into 12-well plates at a density of 1 × 10^5 cells per well and treated with the compound for 24, 48, and 72 h. Post-treatment, the cells were collected using 1X trypsin, including both floating and adherent cells, and centrifuged at 4000 rpm for 5 min. The resulting pellet was resuspended in 100 µL of 1X Annexin V binding buffer and stained with Annexin V-FITC, followed by a 15 min incubation in the dark at 4 °C. Cells were then washed, resuspended in fresh binding buffer, and stained with propidium iodide before immediate analysis via flow cytometry.

MDA-MB-231 cells = experiment: Cell cycle assay, PI staining, flow cytometry; assay type: cell-based; details: MDA-MB-231, 24 h
Protocol: Cell proliferation is well associated with the regulation of cell cycle progression. Therefore, the effect of 1f on cell cycle distribution was evaluated by flow cytometry in PI-stained cells.
Cell cycle distribution was assessed by propidium iodide (PI) staining followed by flow cytometric analysis. Cells (3 × 10^5/well) were plated in 6-well plates and allowed to adhere for 24 h. To synchronize the cell cycle, the medium was replaced with serum-free medium for 8 h. After synchronization, cells were treated with various concentrations of compound 1f for 24 h. Following treatment, cells were harvested with 1X trypsin, washed with cold PBS, and fixed in 70% ethanol at 4 °C for 2 h. Fixed cells were washed twice with PBS, then incubated overnight in a staining solution containing RNase A (1 µL, 10 mg/mL) and PI (5 µL, 1 mg/mL) in 1X PBS. Cell cycle distribution was subsequently determined using flow cytometry.

[3] = test system: MCF-10a (normal breast cells)
Protocol: as §1, §2

SMILES | GI50 (IGROV1) [µM] | Total growth inhibition (TGI) (IGROV1) [µM] | CC50 (IGROV1) [µM] | other results
C=C1CCC2C3(C)COC(c4cn(-c5ccccc5)nc4-c4cccc(F)c4)OC3CCC2(C)C1CC=C1C(=O)OCC1O (stereo not drawn) [1c] | 2.07 | 5.72 | > 100 | –
C=C1CCC2C3(C)COC(c4cn(-c5ccccc5)nc4-c4ccc(Cl)cc4)OC3CCC2(C)C1CC=C1C(=O)OCC1O (stereo not drawn) [1g] | 4.29 | 46.1 | > 100 | –
C=C1CCC2C3(C)COC(c4cn(-c5ccccc5)nc4-c4ccc(Br)cc4)OC3CCC2(C)C1CC=C1C(=O)OCC1O (stereo not drawn) [1h] | 1.67 | 5.16 | > 100 | –
C=C1CCC2C3(C)COC(c4cn(-c5ccccc5)nc4-c4ccc(OC)cc4)OC3CCC2(C)C1CC=C1C(=O)OCC1O (stereo not drawn) [1j] | 1.37 | 2.99 | 6.52 | –
C=C1CCC2C3(C)COC(c4cn(-c5ccccc5)nc4-c4cccc([N+](=O)[O-])c4)OC3CCC2(C)C1CC=C1C(=O)OCC1O (stereo not drawn) [1b] | 2.08 | 4.27 | 8.76 | –
C=C1CCC2C3(C)COC(c4cn(-c5ccccc5)nc4-c4ccc(C)cc4)OC3CCC2(C)C1CC=C1C(=O)OCC1O (stereo not drawn) [1i] | 3.95 | 12.5 | > 100 | –
C=C1CCC2C3(C)COC(c4cn(-c5ccccc5)nc4-c4cccc(Cl)c4)OC3CCC2(C)C1CC=C1C(=O)OCC1O (stereo not drawn) [1d] | 1.39 | 3.22 | 7.5 | –
C=C1CCC2C3(C)COC(c4cn(-c5ccccc5)nc4-c4ccccc4)OC3CCC2(C)C1CC=C1C(=O)OCC1O (stereo not drawn) [1a] | 1.77 | 3.44 | 6.66 | –
C=C1CCC2C3(C)COC(c4cn(-c5ccccc5)nc4-c4ccc(F)cc4)OC3CCC2(C)C1CC=C1C(=O)OCC1O (stereo not drawn) [1f, 3,19-(N-Phenyl-3-(4-fluorophenyl)-pyrazole) Acetal of Andrographolide] | 1.84 | 4.75 | > 100 | anti-proliferation activity (MTT) [1]: strong dose-dependent anti-proliferation activity; apoptotic cells (total) ([2]; 24 h): remained almost the same; apoptotic cells (total) ([2]; 48 h): 44%; early apoptosis (Q3) ([2]; 48 h): 10.3%; late apoptosis (Q2) ([2]; 48 h): 33.0%; apoptotic cells (total) ([2]; 72 h): 55%; early apoptosis (Q3) ([2]; 72 h): 14.7%; late apoptosis (Q2) ([2]; 72 h): 40.6%; G1 (%) (MDA-MB-231 cells; 3.33 µM): 77.36 ± 0.69%; G2 (%) (MDA-MB-231 cells; 3.33 µM): 6.94 ± 0.28%; S (%) (MDA-MB-231 cells; 3.33 µM): 14.2% and 14.4 ± 0.95%; G1 (%) (MDA-MB-231 cells; 5.00 µM): 62.83 ± 1.2%; G2 (%) (MDA-MB-231 cells; 5.00 µM): 4.87 ± 0.26%; S (%) (MDA-MB-231 cells; 5.00 µM): 25.2% and 26.5 ± 0.96%; G1 (%) (MDA-MB-231 cells; 6.66 µM): 59.6% and 57.83 ± 1.2%; G2 (%) (MDA-MB-231 cells; 6.66 µM): 4.01% and 3.82 ± 0.20%; S (%) (MDA-MB-231 cells; 6.66 µM): 21.9 ± 1.03%; CC50 [3]: 50 µM
C=C1CCC2C3(C)COC(c4cn(-c5ccccc5)nc4-c4cccc(Br)c4)OC3CCC2(C)C1CC=C1C(=O)OCC1O (stereo not drawn) [1e] | 2.2 | 4.83 | > 100 | –
